Data on nine substances can be found in patent US9976141B2, “Compositions and methods for inhibiting gene expression of Hif2alpha” (Arrowhead Madison Inc., priority 2015, dated 2018).

The data set deals with human (tumor) Hif2α (EPAS1) mRNA. The data set can be described thus: Hif2α knockdown in orthotopic RCC tumor bearing mice, single injection of RNAi trigger-delivery polymer conjugate, RT-qPCR (Table 7). It counts as in vivo. The following applies: single tail vein injection, relative to isotonic glucose. Put shortly: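 Female athymic nude mice carried orthotopic A498-SEAP ccRCC kidney tumours, used 5–6 weeks after implantation. They received one tail-vein injection of RGD-targeted Hif2α RNAi trigger–polymer conjugate or isotonic glucose. Tumour Hif2α mRNA was measured by TaqMan RT-qPCR normalised to CycA (ΔΔCT) and expressed relative to glucose-treated mice.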

Where [1] appears, read: RNAi trigger 115 μg, polymer 100A 375 μg.
Setting [2] is: RNAi trigger 50 μg, polymer 064 125 μg.
[3] abbreviates: RNAi trigger 80 μg, polymer 126 400 μg.

Strand notation (5' to 3'): a small letter for the sugar, then the base; units joined by * are phosphorothioate-linked, units joined directly phosphodiester-linked; [ ] holds rarer units or linkages, { } end groups; capitals alone tell only the bases. {Alk-C6-SMPT-C6} = Alk-C6-SMPT-C6 linker modification, as named by the publication; [invdT] = inverted (3'-3') thymidine; e = 2'-O-(2-methoxyethyl) (MOE); m = 2'-O-methyl; f = 2'-fluoro

Consider “AD01524 (antisense TUUCAUGAAAUCGUUACGUTT; sense ACGUAACGAUUUCAUGAAAT; Hif2alpha RNAi agent antisense strand; modified_base 2,4,6,8,10,12,14,16,18 /mod_base = “2′-deoxy-2′-fluoro corresponding nucleoside”; modified_base 3,5,7,9,11,13,15,17,19 /mod_base = “2′-O-methyl corresponding nucleoside”; modified_base 2,3,21 /mod_base = “5′-phosphorothioate corresponding nucleotide”; Hif2alpha RNAi agent sense strand; modified_base 1,3,5,7,9,11,13,15,17,19 /mod_base = “2′-deoxy-2′-fluoro corresponding nucleoside”; modified_base 2,4,6,8,10,12,14,16,18 /mod_base = “2′-O-methyl corresponding nucleoside”; modified_base 20 /mod_base = “3′-3′-linked nucleotide”; modified_base 1)”, for which the “Relative Expression day 4 (Hif2α mRNA in kidney tumor)” value under setting [1] stood at 0.26.

For “AD02694 (antisense UUUCAUGAAAUCGUUACGUUG; sense ACGUAACGAUUUCAUGAAAT; Hif2alpha RNAi agent antisense strand; modified_base 2,4,6,8,10,14,16,18 /mod_base = “2′-deoxy-2′-fluoro corresponding nucleoside”; modified_base 1,3,5,7,9,11,12,13,15,17,19,20,21 /mod_base = “2′-O-methyl corresponding nucleoside”; modified_base 2,3,20,21 /mod_base = “5′-phosphorothioate corresponding nucleotide”; Hif2alpha RNAi agent sense strand; modified_base 3,7,9,13,17 /mod_base = “2′-deoxy-2′-fluoro corresponding nucleoside”; modified_base 1,2,4,5,6,8,10,11,12,14,15,16,18,19 /mod_base = “2′-O-methyl corresponding nucleoside”; modified_base 20 /mod_base = “3′-3′-linked nucleotide”; modi)”, the “Relative Expression day 4 (Hif2α mRNA in kidney tumor)” value (RNAi trigger 75 μg, polymer 064 187.5 μg) was determined as 0.099.

As to “AD03192 (antisense AGUAAAACAAUUGUGUACUUUAA; sense AAAGUACACAAUUGUUUUACT; Hif2alpha RNAi agent antisense strand; modified_base 2,4,6,8,10,14,18 /mod_base = “2′-deoxy-2′-fluoro corresponding nucleoside”; modified_base 1,3,5,7,9,11,12,13,15,16,17,19,20,21,22,23 /mod_base = “2′-O-methyl corresponding nucleoside”; modified_base 2,3,22,23 /mod_base = “5′-phosphorothioate corresponding nucleotide”; Hif2alpha RNAi agent sense strand; modified_base 5,7,9,10,11,13,15 /mod_base = “2′-deoxy-2′-fluoro corresponding nucleoside”; modified_base 1,2,3,4,6,8,12,14,16,17,18,19,20 /mod_base = “2′-O-methyl corresponding nucleoside”; modified_base 21 /mod_base = “3′-3′-linked nucleoti)”, the “Relative Expression day 4 (Hif2α mRNA in kidney tumor)” value under setting [2] came to 0.286.

Consider “AD01026 (antisense TAAAUCGUUACGUUGACAGTT; sense CUGUCAACGUAACGAUUUAT; Hif2alpha RNAi agent antisense strand; modified_base 2,4,8,10,12,14,16,18 /mod_base = “2′-deoxy-2′-fluoro corresponding nucleoside”; modified_base 3,5,7,9,11,13,15,17,19 /mod_base = “2′-O-methyl corresponding nucleoside”; modified_base 6 /mod_base = “2′-3′ seco corresponding nucleotide”; modified_base 21 /mod_base = “5′-phosphorothioate corresponding nucleotide”; Hif2alpha RNAi agent sense strand; modified_base 1,3,5,7,9,11,13,15,17,19 /mod_base = “2′-deoxy-2′-fluoro corresponding nucleoside”; modified_base 2,4,6,8,10,12,14,16,18 /mod_base = “2′-O-methyl corresponding nucleoside”; modified_b)”, for which the “Relative Expression day 4 (Hif2α mRNA in kidney tumor)” value under setting [3] turned out to be 0.97.

Turning to “AD01029 (antisense TUUCAUGAAAUCGUUACGUTT; sense ACGUAACGAUUUCAUGAAAT; Hif2alpha RNAi agent antisense strand; modified_base 2,4,8,10,12,14,16,18 /mod_base = “2′-deoxy-2′-fluoro corresponding nucleoside”; modified_base 3,5,7,9,11,13,15,17,19 /mod_base = “2′-O-methyl corresponding nucleoside”; modified_base 6 /mod_base = “2′-3′ seco corresponding nucleotide”; modified_base 21 /mod_base = “5′-phosphorothioate corresponding nucleotide”; Hif2alpha RNAi agent sense strand; modified_base 1,3,5,7,9,11,13,15,17,19 /mod_base = “2′-deoxy-2′-fluoro corresponding nucleoside”; modified_base 2,4,6,8,10,12,14,16,18 /mod_base = “2′-O-methyl corresponding nucleoside”; modified_b)”, the “Relative Expression day 4 (Hif2α mRNA in kidney tumor)” value under setting [3] is reported as 0.94.

For “AD01888 (antisense UCUAGCAACAAAACCUUAATT; sense UUAAGGUUUUGUUGCUAGAT; Hif2alpha RNAi agent antisense strand; modified_base 2,4,6,8,10,12,14,15,18 /mod_base = “2′-deoxy-2′-fluoro corresponding nucleoside”; modified_base 1,3,5,7,9,11,13,16,17,19 /mod_base = “2′-O-methyl corresponding nucleoside”; modified_base 2,3,21 /mod_base = “5′-phosphorothioate corresponding nucleotide”; Hif2alpha RNAi agent sense strand; modified_base 1,3,4,7,9,11,13,15,17,19 /mod_base = “2′-deoxy-2′-fluoro corresponding nucleoside”; modified_base 2,5,6,8,10,12,14,16,18 /mod_base = “2′-O-methyl corresponding nucleoside”; modified_base 20 /mod_base = “3′-3′-linked nucleotide”; modified_base)”, the “Relative Expression day 4 (Hif2α mRNA in kidney tumor)” value (RNAi trigger 100 μg, polymer 064 250 μg) is given as 0.209.

Take “AD03266 (antisense UUUCAUGAAAUCGUUACGUUG; sense ACGUAACGAUUUCAUGAAAT; Hif2alpha RNAi agent antisense strand; modified_base 2,4,6,8,14 /mod_base = “2′-deoxy-2′-fluoro corresponding nucleoside”; modified_base 1,3,5,7,9,10,11,12,13,15,16,17,18,19,20,21 /mod_base = “2′-O-methyl corresponding nucleoside”; modified_base 2,3,20,21 /mod_base = “5′-phosphorothioate corresponding nucleotide”; Hif2alpha RNAi agent sense strand; modified_base 7,8,9 /mod_base = “2′-deoxy-2′-fluoro corresponding nucleoside”; modified_base 1,2,3,4,5,6,10,11,12,13,14,15,16,17,18,19 /mod_base = “2′-O-methyl corresponding nucleoside”; modified_base 20 /mod_base = “3′-3′-linked nucleotide”; modi)”: the “Relative Expression day 4 (Hif2α mRNA in kidney tumor)” value under setting [2] is 0.408.

In the case of “AD01288 (antisense TUUCAUGAAAUCGUUACGUTT; sense ACGUAACGAUUUCAUGAAAT; Hif2alpha RNAi agent antisense strand; modified_base 2,4,6,8,10,14,16,18 /mod_base = “2′-deoxy-2′-fluoro corresponding nucleoside”; modified_base 3,5,7,9,11,12,13,15,17,19 /mod_base = “2′-O-methyl corresponding nucleoside”; modified_base 21 /mod_base = “5′-phosphorothioate corresponding nucleotide”; Hif2alpha RNAi agent sense strand; modified_base 1,3,5,7,8,9,11,13,15,17,19 /mod_base = “2′-deoxy-2′-fluoro corresponding nucleoside”; modified_base 2,4,6,10,12,14,16,18 /mod_base = “2′-O-methyl corresponding nucleoside”; modified_base 20 /mod_base = “3′-3′-linked nucleotide”; modified_base 1 /mo)”, the “Relative Expression day 4 (Hif2α mRNA in kidney tumor)” value under setting [1] worked out at 0.32.

“AD03261 (antisense mA*fU*mUmCmAmUmGfAmAfAmUmCmGfUmUmAmCmGmU*mU*mG; sense ACGUAACGAUUUCAUGAAT; siRNA; sense: sugars from the 5' end e2 m4 f3 m8 e2, [invdT] at 3' end, linkages s1 o18 (s phosphorothioate, o phosphodiester), 5' {Alk-C6-SMPT-C6}, methylation of C not given here; further chemistry not fully specified)”: the “Relative Expression day 4 (Hif2α mRNA in kidney tumor)” value under setting [2] is reported as 0.177.
